The values below come from patent US8916681B2, “Compound, use and method” (Medical Research Council, priority 2007, dated 2014).

Entries after “also recorded” stand apart in the source; their conditions may differ. Non-standard residues stand in square brackets, D forms with d. Residues, ends and D or L forms follow the SMILES beside them.

One experiment has as its target GPR54 (Homo sapiens, UniProt Q969F8). Briefly: Inositol phosphate (IP) stimulation assay in CHO/gpr-54 cells. Type of experiment: cell-based. Further details: G. Vassart, Univ; Brussels. The conditions noted are these: CHO cells stably-expressing human gpr-54.
Experiment [1] deals with plasma LH, GH, prolactin and cortisol. Kind of experiment: Central (third ventricle) infusion in OVX ewes: plasma LH, GH, prolactin, cortisol. Type of experiment: in vivo, sheep. An excerpt:
Adult Corriedale ewes were housed under natural lighting and were bilaterally ovariectomized (OVX) at least 1 month before any experimental manipulations. Permanent indwelling third cerebral ventricular (3V) cannulae were implanted in a subsequent surgical procedure as previously described (Barker-Gibb et al., 1995, J. Endocrinol., 147:565-79). Approximately two weeks after 3V surgery, one external jugular vein was cannulated for blood sampling and animals housed in single pens; cannulae were kept patent with heparinized saline.
Ewes were assigned to two treatment groups (n=4 per group); kisspeptin antagonist (diluted in artificial cerebrospinal fluid, aCSF; 150 mM NaCl, 1.2 mM CaCl2, 1 mM MgCl2, 2.8 mM KCl) or control (aCSF only). The following day, infusion lines were connected to 3V cannulae and blood sampling commenced at 07.00 h. Samples were collected every 10 min. After 3 h of sampling, kisspeptin antagonist (or control) was infused into the 3V at a dose of 40 μg/h for 1 h, with an initial loading dose of 10 μg. Both kisspeptin antagonist and vehicle were infused at 200 μl/h for 1 h using Graseby® MS16A infusion pumps (Smiths Medical Australasia Pty. Ltd., Gold Coast, Qld, Australia). After infusion, 3V lines remained in place and blood sampling continued for a further 2 h (total of 6 h). Plasma was harvested immediately from samples, and frozen at −20 C until assayed.
Plasma LH concentrations were measured in duplicate, using the method of Lee et al. (1976, J. Reprod. Fertil., 46:1-6) with NIH-oLH-518 as standard. Assay results were calculated using the program of Burger et al. (1972, J. Lab. Clin. Med., 80:302-12). Assay sensitivity was 0.08 ng/ml and the intra-assay coefficient of variation was less than 10% over the range of 0.3-12.8 ng/ml. A pulse analysis of the LH data was performed based on the method described for GnRH (Clarke, 1993, Endocrinology, 133:1624-32).
All experimental procedures were conducted under a protocol approved by the Monash School of Biomedical Sciences Animal Ethics Committee. Adult Corriedale ewes were housed under natural lighting and were bilaterally ovariectomized (OVX) at least 1 month before any experimental manipulations. Permanent indwelling third cerebral ventricular (3V) cannulae were implanted in a subsequent surgical procedure as previously described (49). Approximately 2 weeks after 3V surgery, one external jugular vein was cannulated for blood sampling and animals housed in single pens; cannulae were kept patent with heparinized saline. Ewes were assigned to two treatment groups (4/group); peptide 234 (diluted in artificial cerebrospinal fluid, aCSF; 150 mM NaCl, 1.2 mM CaCl2, 1 mM MgCl2, 2.8 mM KCl) or control (aCSF only). The following day, infusion lines were connected to 3V cannulae and blood sampling commenced at 07.00 h. Samples were collected every 10 min. After 3 h of sampling, peptide 234 (or control) was infused into the 3V at a dose of 40 μg/h for 1 h, with an initial loading dose of 10 μg. Both peptide 234 and vehicle were infused at 200 μl/h using Graseby® MS16A infusion pumps (Smith Medical Australasia Pty. Ltd.). After infusion, 3V lines remained in place and blood sampling continued for a further 2 h (total of 6 h). Plasma was harvested immediately from samples, and frozen at −20 C until assayed.
Plasma LH concentrations were measured in duplicate, with NIH-oLH-518 as standard (49). Assay sensitivity was 0.1 ng/ml and the intra-assay coefficient of variation was less than 10% over the range of 0.3-12.8 ng/ml. Pulse analysis of the plasma LH data was as previously described (36). Plasma samples were assayed for GH in duplicate using the standard NIDDK-oGH-I-4 and NIDDK-anti-oGH-2 antiserum (50). The assay sensitivity was 1 ng/ml, the intra-assay CV was less than 10% between 4 and 51 ng/ml and the inter-assay CV was 20%.
Plasma prolactin concentrations were measured in duplicate using Sigma, Lot 114F-0558, NOL-7135 as standard (50). […]

The mark [2] stands for this setting: before, during or after infusion.

Chain of GPR54 (Q969F8 whole entry, the tested form may be a part): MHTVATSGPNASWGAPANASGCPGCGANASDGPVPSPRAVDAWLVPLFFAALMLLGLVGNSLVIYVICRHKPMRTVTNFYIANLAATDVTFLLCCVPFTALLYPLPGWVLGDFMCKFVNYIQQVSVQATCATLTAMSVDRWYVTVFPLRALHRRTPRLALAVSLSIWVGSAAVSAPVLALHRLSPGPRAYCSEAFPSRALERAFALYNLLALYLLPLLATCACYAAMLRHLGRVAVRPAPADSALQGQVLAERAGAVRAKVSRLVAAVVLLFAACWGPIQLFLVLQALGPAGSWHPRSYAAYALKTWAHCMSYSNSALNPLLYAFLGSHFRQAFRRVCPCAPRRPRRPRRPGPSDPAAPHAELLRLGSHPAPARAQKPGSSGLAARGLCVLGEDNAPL
Procedure for GPR54: Inositol-3-phoshate Stimulation Assay—Cell monolayers had 0.5 mls HEPES modified DMEM supplemented with 1% Penicillin/Streptomycin for 30 mins at 37° C. to block IP3 breakdown. Cells were then stimulated with 0.5 mls Kisspeptin-10 and analogues (10 pM-1 uM) diluted at 1:1000 in the above media for 1 hr at 37° C., then in 10 mM Formic acid at 4° C. for 1 hr to lyse cells. Lysate was then transferred to plastic tubes containing 0.5 mls Dowex resin to bind the radioactive IP3 and the resin was then washed with 1 ml H2O. The resin was then washed with 60 mM NH4 formate/5 mM Sodium tetraborate followed by 1M NH4 formate/0.1M Formic acid to release the bound radiation. Then 800 μls of the radioactive solution were transferred to scintillation vials containing 2.5 mls scintillation fluid and radioactivity counted on a Beta counter for 60 seconds.
IP stimulation refers to intrinsic residual agonist activity where estimateable.
The cells were maintained in Dulbecco's modified Eagle's medium (DMEM; Sigma) supplemented with 10% fetal calf serum, 2% glutamine and 1% penicillin (10,000 units/ml)/streptomycin (10,000 mg/ml) at 37° C. in a humidified 5% CO2 atmosphere.
Prior to stimulation CHO/gpr-54 cells were washed twice with Dulbecco's phosphate-buffered saline (DPBS; without calcium or magnesium) then incubated overnight with ^3H-myoinositol, labeled HEPES-modified DMEM with 1% penicillin/streptomycin at 37° C. HEPES-modified DMEM supplemented with 1% penicillin/streptomycin and 1% lithium chloride (0.5 ml) was added to cells for 30 min at 37° C. to block IP hydrolysis. Cells were then stimulated with 0.5 ml kisspeptin-10 and analogues (10 pM-1 μM) diluted at 1:100 in the above media for 1 h at 37° C., then with 10 mM formic acid at 4° C. for 1 h to lyse cells. Lysates were transferred to plastic tubes containing 0.5 ml Dowex resin to bind the radioactive IP and the resin was then washed with 1 ml water. The resin was next washed with 60 mM ammonium formate/5 mM sodium tetraborate. followed by 1M ammonium formate/0.1M formic acid to release the bound radiation. Then 800 μl of the radioactive solution were transferred to scintillation vials containing 2.5 ml scintillation fluid and radioactivity counted on a Beta counter for 60 sec. Experiments were repeated 3-5 times. IP production was plotted as mean values±SEM and analyzed by using a Student's t-Test (p≧0.05).

For the compound `CC(=O)N[C@H](C)C(=O)N[C@@H](CC(N)=O)C(=O)N[C@@H](Cc1c[nH]c2ccccc12)C(=O)N[C@@H](CC(N)=O)C(=O)NCC(=O)N[C@@H](Cc1ccccc1)C(=O)NCC(=O)N[C@H](Cc1c[nH]c2ccccc12)C(=O)N[C@@H](CCCNC(=N)N)C(=O)N[C@@H](Cc1ccccc1)C(N)=O` [Peptide 234] (Ac-[dA]NWNGFG[dW]RF-NH2), the “stimulation of IP by the peptide alone” value at GPR54 is on record as “little or no stimulation; also recorded: no intrinsic IP stimulation”. The “Mean GH” value in experiment [1] (After Infusion) was 9.11 ± 1.44 ng/mL; in experiment [1] (Before Infusion) it was 5.11 ± 1.48 ng/mL; in experiment [1] (During Infusion, listed as Peptide-234), 14.07 ± 2.78 ng/mL; in experiment [1] (During Infusion, listed as peptide 234) it was “significant increase; also recorded: increased; also recorded: appeared to increase”. Further, the “Mean LH” value in experiment [1] (After Infusion) is “significant reduction; also recorded: reduced”; in experiment [1] (Before Infusion), 2.73 ± 0.43 ng/mL; in experiment [1] (During Infusion), 2.89 ± 0.55 ng/mL. Also, the LH pulse amplitude in experiment [1] (After Infusion (240-360 min), listed as Peptide-234) is 0.68 ± 0.05 ng/mL; in experiment [1] (After Infusion (240-360 min), listed as peptide 234), “significant reduction; also recorded: diminished amplitude; also recorded: markedly reduced”; in experiment [1] (Before Infusion (0-180 min)) it was 1.63 ± 0.28 ng/mL; in experiment [1] (During Infusion (180-240 min), 40 μg/h, loading dose 10 μg), 1.82 ± 0.52 ng/mL. In addition, the “number of LH secretory pulses” value in experiment [1] (after ventricular administration) is on record as “markedly reduced”. Also, in experiment [1] (setting [2]), the cortisol concentrations result was “no effect”. In addition, the prolactin concentrations result in experiment [1] (setting [2]) is “no effect”.
